Literature values in paper PMC9921896 (Molecules, 2023).

Experiments:
[1] = cited from earlier work
[2] = cited from earlier work; remark: listed apart in the source
estrogenicity = details: cited from earlier work

CC(C)(c1ccc(O)cc1)c1ccc(O)cc1 [BPA, Bisphenol A]
highest dose level with no negative impact on the health ([1]; CLARITY-BPA core study): 25,000 μg kg bw^−1 day^−1
lowest-observed-adverse-effect level (LOAEL) ([1]; suggested from low-dose effects): 2.5 μg (kg bw)^−1 day^−1
new TDI (draft opinion) ([2]; EFSA draft opinion): 0.04 ng (kg bw)^−1 day^−1
t-TDI ([2]; set by EFSA in 2015): 4 μg (kg bw)^−1 day^−1

CC(C)(c1ccc(O)cc1)c1ccc(O[C@@H]2O[C@H](C(=O)O)[C@@H](O)[C@H](O)[C@H]2O)cc1 [BPA-based Glucuronide metabolite, reference compound]
estrogenicity (estrogenicity; BPA glucuronide): non-estrogenic

C=C(CC(C)(C)c1ccc(O)cc1)c1ccc(O)cc1 [MBP, 4-methyl-2,4-bis(p-hydroxyphenyl) pent-1-ene, reference compound]
estrogenicity relative to BPA (estrogenicity; metabolite formed with rat liver S9 fraction): several-thousand-fold
